Source: patent EP0054756A2, “Antibacterial benzylpyrimidines” (THE WELLCOME FOUNDATION LIMITED, priority 1980, dated 1982)
In brackets after ≈: the same amount, converted by molar mass. Counter-ions that a name gives are not always drawn. Like-named read-outs stand apart in the source and are kept apart here.

How the values were obtained:
Dihydrofolate reductase [1] = target: Dihydrofolate reductase (Escherichia coli, UniProt P0ABQ4); test: Dihydrofolate reductase inhibition; type: biochemical, E. coli
Dihydrofolate reductase [2] = target: T1, Dihydrofolate reductase (Rattus norvegicus, UniProt Q920D2); test: Dihydrofolate reductase inhibition; type: biochemical, Rat liver
T1 construct: Rat liver; from tissue; host or cells: rat liver
T1 sequence (Q920D2 1-187): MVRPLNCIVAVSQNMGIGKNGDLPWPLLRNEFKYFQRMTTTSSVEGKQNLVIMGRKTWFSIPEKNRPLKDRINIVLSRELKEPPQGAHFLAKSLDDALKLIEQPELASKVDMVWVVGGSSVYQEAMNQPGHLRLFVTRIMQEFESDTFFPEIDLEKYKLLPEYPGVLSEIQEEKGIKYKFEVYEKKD

Dihydrofolate reductase [3] = target: Dihydrofolate reductase (Neisseria gonorrhoeae, UniProt P04174); test: biochemical; details: N. gonorrhea enzyme; read-out: Dihydrofolate reductase inhibition, I50 x 10^8
St. pyogenes = test: In vitro antibacterial activity (MIC); type: cell-based; details: Streptococcus pyogenes
Dihydrofolate reductase [4] = target: Dihydrofolate reductase (Plasmodium berghei, UniProt Q27713); test: biochemical; details: P. berghei enzyme; read-out: Dihydrofolate reductase inhibition, I50 x 10^8
N. gonorrhea = test: In vitro antibacterial activity versus TMP, Wellcome test; type: cell-based; details: activity relative to trimethoprim
Staph.aureus CN 491 = test: In vitro antibacterial activity (MIC); type: cell-based; details: Staphylococcus aureus, CN491
E. coli CN 314 = test: In vitro antibacterial activity (MIC); type: cell-based; details: Escherichia coli, CN314
Strep.Faecalis CN 478 = test: In vitro antibacterial activity (MIC); type: cell-based; details: Enterococcus faecalis, CN478
[5] = E. coli enzyme, read-out: Dihydrofolate reductase inhibition, I50 x 10^8
[6] = Rat liver enzyme, read-out: Dihydrofolate reductase inhibition, I50 x 10^8
[7] = read-out: MIC St. pyogenes CN 10
[8] = read-out: MIC St. pyogenes S3640

## 2,4-diamino-5-(3,4-dime-thoxy-5-(3-p-nitrophenyl-propoxy)benzyl)pyrimidine
Dihydrofolate reductase [1]; [5]
  IC50: 17 nM
Dihydrofolate reductase [2]; [6]
  IC50: 25000 nM

## 2,4-dimethoxy-5-(dime-thoxy-5-(3-p-aminophenyl-propoxy)benzyl)pyrimidine
Dihydrofolate reductase [3]
  IC50: 29 nM
Dihydrofolate reductase [1]; [5]
  IC50: 7.2 nM
Dihydrofolate reductase [2]; [6]
  IC50: 81000 nM

## CCc1cc(Cc2cnc(N)nc2N)cc(CC)c1OCCOCc1ccccc1 [Example 6, 2,4-Diamino-5-(3,5-diethyl-4-(2-benzyloxyethoxy)benzyl)pyrimidine]
St. pyogenes; [7]
  MIC: 3 µg/mL (≈ 7.38 µM)
St. pyogenes; [8]
  MIC: 1 µg/mL (≈ 2.46 µM)
Dihydrofolate reductase [4]
  IC50: 34 nM
N. gonorrhea
  Act., vs TMP N. gonorrhea Wellcome test: 0.35
Staph.aureus CN 491
  MIC: 3 µg/mL (≈ 7.38 µM)
Dihydrofolate reductase [3]
  IC50: 48 nM
E. coli CN 314
  MIC: 10 µg/mL (≈ 24.6 µM)
Dihydrofolate reductase [2]; [6]
  IC50: 26000 nM
Strep.Faecalis CN 478
  MIC: 0.3 µg/mL (≈ 0.738 µM)

## COc1cc(Cc2cnc(N)nc2N)cc(OCCCCOc2ccccc2)c1OC [Example 10, 2,4-Diamino-5-(3,4-dimethoxy-5-(4-phenoxybutoxy)benzyl)pyrimidine hydrochloride]
Dihydrofolate reductase [3]
  IC50: 19 nM
Dihydrofolate reductase [1]
  IC50: 4 nM
Dihydrofolate reductase [2]
  IC50: 74000 nM

## COc1cc(Cc2cnc(N)nc2N)cc(OCCSc2ccccc2)c1OC [Example 14, 2,4-Diamino-5-(3,4-dimethoxy-5-(2-(phenylthio)ethoxy)benzyl)pyrimidine]
St. pyogenes; [7]
  MIC: 0.5 µg/mL (≈ 1.21 µM)
St. pyogenes; [8]
  MIC: 0.5 µg/mL (≈ 1.21 µM)
Staph.aureus CN 491
  MIC: 0.5 µg/mL (≈ 1.21 µM)
Dihydrofolate reductase [3]
  IC50: 11.4 nM
E. coli CN 314
  MIC: 1 µg/mL (≈ 2.42 µM)
Dihydrofolate reductase [1]
  IC50: 5.3 nM
Dihydrofolate reductase [2]
  IC50: 37000 nM
Strep.Faecalis CN 478
  MIC: 0.5 µg/mL (≈ 1.21 µM)

## COc1cc(Cc2cnc(N)nc2N)cc(OCCSCc2ccccc2)c1OC [Example 15, 2,4-Diamino-5-(3,4-dimethoxy-5-(2-(benzylthio)ethoxy)benzyl)pyrimidine]
St. pyogenes; [7]
  MIC: 0.5 µg/mL (≈ 1.17 µM)
St. pyogenes; [8]
  MIC: 0.5 µg/mL (≈ 1.17 µM)
Staph.aureus CN 491
  MIC: 0.05 µg/mL (≈ 0.117 µM)
Dihydrofolate reductase [3]
  IC50: 18 nM
E. coli CN 314
  MIC: 0.5 µg/mL (≈ 1.17 µM)
Dihydrofolate reductase [1]
  IC50: 2 nM
Dihydrofolate reductase [2]
  IC50: 47000 nM
Strep.Faecalis CN 478
  MIC: 0.1 µg/mL (≈ 0.234 µM)
